As a reminder, the IC50 is the midpoint of a concentration-inhibition curve.

Here are results for 16 compounds from ChEMBL document CHEMBL3588788, “Structure-activity relationship of hybrids of Cinchona alkaloids and bile acids with in vitro antiplasmodial and antitrypanosomal activities” (Eur J Med Chem, 2015).

A short description of one data set: in vitro. The conditions noted are these: human, WI38 cells.
Data set [1] is described as follows: Selectivity index, ratio of IC50 against human WI38 cells to IC50 for Plasmodium falciparum 3D7. The conditions noted are these: read-out: Ratio IC50. The format is toxicity, cell-based, WI-38.
Data set [2] relates to Trypanosoma brucei brucei. Nature of the data set: Antitrypanosomal activity against Trypanosoma brucei brucei Lister 427 bloodstream forms by microtiter plate based assay. The format is functional, organism-based.
Data set [3] can be described thus: Cytotoxicity against human WI38 cells by MTT assay. The class given is cell-based, WI-38. Particulars: Homo sapiens, WI-38; read-out: IC50. A general note: Tetrazolium assays rely on reduction of a dye to a coloured formazan, in cell work by metabolically active cells.
Data set [4] deals with Trypanosoma brucei brucei. Nature of the data set: Potency index, ratio of IC50 for QN to IC50 for test compound against Trypanosoma brucei brucei Lister 427 bloodstream forms by microtiter plate based assay. The format is functional.
Data set [5] deals with Plasmodium falciparum. Kind of data set: Antiplasmodial activity against Plasmodium falciparum 3D7 assessed as reduction in parasite viability by parasite lactate dehydrogenase assay. The class given is functional, organism-based.
The test system of data set [6] is Plasmodium falciparum. Nature of the data set: Potency index, ratio of IC50 for QN to IC50 for test compound against Plasmodium falciparum 3D7 by parasite lactate dehydrogenase assay. The class given is functional.
For data set [7], the system named is Plasmodium falciparum. Nature of the data set: Potency index, ratio of IC50 for QND to IC50 for test compound against Plasmodium falciparum 3D7 by parasite lactate dehydrogenase assay. The format is functional.
Data set [8] relates to Trypanosoma brucei brucei. Kind of data set: Potency index, ratio of IC50 for QND to IC50 for test compound against Trypanosoma brucei brucei Lister 427 bloodstream forms by microtiter plate based assay. The format is functional.
For data set [9], the system named is Trypanosoma brucei brucei. Nature of the data set: Potency index, ratio of IC50 for CN to IC50 for test compound against Trypanosoma brucei brucei Lister 427 bloodstream forms by microtiter plate based assay. The class given is functional.
The test system of data set [10] is Plasmodium falciparum. Nature of the data set: Potency index, ratio of IC50 for CN to IC50 for test compound against Plasmodium falciparum 3D7 by parasite lactate dehydrogenase assay. The format is functional.

Description for in vitro: Selectivity index, ratio of IC50 against human WI38 cells to IC50 for Trypanosoma brucei brucei Lister 427 bloodstream forms

As to `C=C[C@H]1CN2CC[C@H]1C[C@H]2[C@H](O)c1cc(CC[C@@H](C)[C@H]2CC[C@H]3[C@@H]4C[C@H](OC(C)=O)[C@@H]5C[C@H](OC(C)=O)CC[C@]5(C)[C@H]4CC[C@]23C)nc2ccc(OC)cc12`, the selectivity ratio was 3.9 in the data set “in vitro” and 13 in [1]. Further, the IC50 in data set [2] was found to be 1.49 µM; in data set [3] it was 5.86 µM; in the data set on Plasmodium falciparum [5], 0.46 µM. Moreover, the entries for the “Ratio IC50” value (in data set [4]; with Plasmodium falciparum [6]) were 14.3 and 1.4, respectively.
On to `C=C[C@H]1CN2CC[C@H]1C[C@H]2[C@H](O)c1cc(CC[C@@H](C)[C@H]2CC[C@H]3[C@@H]4[C@H](OC(C)=O)[C@H](OC(C)=O)[C@@H]5C[C@H](OC(C)=O)CC[C@]5(C)[C@H]4CC[C@]23C)nc2ccc(OC)cc12`, for which the selectivity ratio in “in vitro” was 8.3; in data set [1], 67.2. In addition, the IC50 came to 0.45 µM in data set [2], 3.76 µM in [3] and 0.056 µM in the data set on Plasmodium falciparum [5]. The “Ratio IC50” value in data set [4] was 46.8; with Plasmodium falciparum [6], 11.3.
Take `C=C[C@H]1CN2CC[C@H]1C[C@H]2[C@H](O)c1cc(CC[C@@H](C)[C@H]2CC[C@H]3[C@@H]4CC[C@@H]5C[C@H](OC(C)=O)CC[C@]5(C)[C@H]4C[C@H](OC(C)=O)[C@]23C)nc2ccc(OC)cc12`: the selectivity ratio in the data set “in vitro” came to 3; in [1], 22. Moreover, the 50% inhibitory concentration (IC50) in data set [2] is 1.47 µM; in data set [3], 4.41 µM; in the data set on Plasmodium falciparum [5], 0.197 µM. Moreover, the figures for the “Ratio IC50” value (in [4]; in the data set on Plasmodium falciparum [6]) were 14.4 and 3.2, respectively.
For the compound `C=C[C@H]1CN2CC[C@H]1C[C@H]2[C@H](O)c1cc(CC[C@@H](C)[C@H]2CC[C@H]3[C@@H]4[C@H](OC(C)=O)C[C@@H]5C[C@H](OC(C)=O)CC[C@]5(C)[C@H]4C[C@H](OC(C)=O)[C@]23C)nc2ccc(OC)cc12`, the selectivity ratio worked out at 9.3 in “in vitro” and 103 in data set [1]. The IC50 in [2] came out at 0.48 µM; in data set [3], 4.47 µM; in the data set on Plasmodium falciparum [5], 0.0435 µM. For the same compound, the figures for the “Ratio IC50” value (in data set [4]; in the data set on Plasmodium falciparum [6]) were 44.1 and 14.6, respectively.
Regarding `C=C[C@H]1CN2CC[C@H]1C[C@H]2[C@H](O)c1cc(CC[C@@H](C)[C@H]2CC[C@H]3[C@@H]4C[C@H](O)[C@@H]5C[C@H](O)CC[C@]5(C)[C@H]4CC[C@]23C)nc2ccc(OC)cc12`, the selectivity ratio in “in vitro” came to 7; in data set [1], 21. Also, the IC50 in [2] stood at 0.65 µM; in data set [3], 4.6 µM; with Plasmodium falciparum [5] it was 0.224 µM. Moreover, the “Ratio IC50” value stood at 32.4 in data set [4] and 2.8 with Plasmodium falciparum [6].
For the compound `C=C[C@H]1CN2CC[C@H]1C[C@@H]2[C@@H](O)c1cc(CC[C@@H](C)[C@H]2CC[C@H]3[C@@H]4C[C@H](OC(C)=O)[C@@H]5C[C@H](OC(C)=O)CC[C@]5(C)[C@H]4CC[C@]23C)nc2ccc(OC)cc12`, the selectivity ratio worked out at 3.1 in “in vitro” and 29 in data set [1]. Also, the figures for the IC50 (in [2]; in data set [3]; in the data set on Plasmodium falciparum [5]) were 1.47 µM, 4.49 µM and 0.155 µM, respectively. In addition, the results for the “Ratio IC50” value (with Plasmodium falciparum [7]; in data set [8]) were 1.3 and 17.7, respectively.
Consider `C=C[C@H]1CN2CC[C@H]1C[C@@H]2[C@@H](O)c1cc(CC[C@@H](C)[C@H]2CC[C@H]3[C@@H]4[C@H](OC(C)=O)[C@H](OC(C)=O)[C@@H]5C[C@H](OC(C)=O)CC[C@]5(C)[C@H]4CC[C@]23C)nc2ccc(OC)cc12`, for which the selectivity ratio in the data set “in vitro” is 5.8; in data set [1], 45. In addition, the IC50 turned out to be 0.56 µM in [2], 3.29 µM in [3] and 0.0732 µM in the data set with Plasmodium falciparum [5]. Also, the “Ratio IC50” value came out at 2.7 in the data set with Plasmodium falciparum [7] and 46.2 in data set [8].
As to `C=C[C@H]1CN2CC[C@H]1C[C@@H]2[C@@H](O)c1cc(CC[C@@H](C)[C@H]2CC[C@H]3[C@@H]4CC[C@@H]5C[C@H](OC(C)=O)CC[C@]5(C)[C@H]4C[C@H](OC(C)=O)[C@]23C)nc2ccc(OC)cc12`, the values for the selectivity ratio (in the data set “in vitro”; in [1]) were 7.7 and 27, respectively. The values for the IC50 (in [2]; in data set [3]; with Plasmodium falciparum [5]) were 0.69 µM, 5.33 µM and 0.195 µM, respectively. Besides, the “Ratio IC50” value with Plasmodium falciparum [7] was 1; in data set [8] it was 37.5.
Take `C=C[C@H]1CN2CC[C@H]1C[C@@H]2[C@@H](O)c1cc(CC[C@@H](C)[C@H]2CC[C@H]3[C@@H]4[C@H](OC(C)=O)C[C@@H]5C[C@H](OC(C)=O)CC[C@]5(C)[C@H]4C[C@H](OC(C)=O)[C@]23C)nc2ccc(OC)cc12`: the selectivity ratio came to 8.7 in “in vitro” and 56 in [1]. Further, the IC50 in [2] worked out at 0.53 µM; in data set [3] it was 4.66 µM; in the data set on Plasmodium falciparum [5] it was 0.0838 µM. Also, the entries for the “Ratio IC50” value (with Plasmodium falciparum [7]; in [8]) were 2.3 and 48.8, respectively.
For `C=C[C@H]1CN2CC[C@H]1C[C@@H]2[C@@H](O)c1cc(CC[C@@H](C)[C@H]2CC[C@H]3[C@@H]4C[C@H](O)[C@@H]5C[C@H](O)CC[C@]5(C)[C@H]4CC[C@]23C)nc2ccc(OC)cc12`, the selectivity ratio in the data set “in vitro” was 2.5; in data set [1], 18. Also, the IC50 was determined as 0.89 µM in data set [2], 2.2 µM in data set [3] and 0.123 µM with Plasmodium falciparum [5]. Further, the “Ratio IC50” value stood at 1.6 in the data set with Plasmodium falciparum [7] and 29.2 in data set [8].
As for `C=C[C@H]1CN2CC[C@H]1C[C@@H]2[C@@H](O)c1cc(CC[C@@H](C)[C@H]2CC[C@H]3[C@@H]4[C@H](O)[C@H](O)[C@@H]5C[C@H](O)CC[C@]5(C)[C@H]4CC[C@]23C)nc2ccc(OC)cc12`, the values for the selectivity ratio (in the data set “in vitro”; in data set [1]) were 6.2 and 27.9, respectively. Besides, the figures for the IC50 (in [2]; in data set [3]; in the data set with Plasmodium falciparum [5]) were 0.77 µM, 4.75 µM and 0.17 µM, respectively. Further, the figures for the “Ratio IC50” value (in the data set on Plasmodium falciparum [7]; in data set [8]) were 1.1 and 33.9, respectively.
For `C=C[C@H]1CN2CC[C@H]1C[C@@H]2[C@@H](O)c1cc(CC[C@@H](C)[C@H]2CC[C@H]3[C@@H]4CC[C@@H]5C[C@H](O)CC[C@]5(C)[C@H]4C[C@H](O)[C@]23C)nc2ccc(OC)cc12`, the selectivity ratio in the data set “in vitro” was 7.1; in data set [1], 15. The IC50 in [2] stood at 0.61 µM; in data set [3], 4.3 µM; with Plasmodium falciparum [5] it was 0.281 µM. In addition, the “Ratio IC50” value in the data set on Plasmodium falciparum [7] amounted to 0.7; in data set [8], 42.7.
On to `C=C[C@H]1CN2CC[C@H]1C[C@@H]2[C@@H](O)c1cc(CC[C@@H](C)[C@H]2CC[C@H]3[C@@H]4[C@H](O)C[C@@H]5C[C@H](O)CC[C@]5(C)[C@H]4C[C@H](O)[C@]23C)nc2ccc(OC)cc12`, for which the selectivity ratio in “in vitro” came to 9.8; in [1], 17. The half-inhibitory concentration (IC50) in data set [2] was 1.21 µM; in [3], 11.8 µM; in the data set with Plasmodium falciparum [5], 0.7 µM. Moreover, the “Ratio IC50” value in the data set on Plasmodium falciparum [7] was 0.3; in [8], 21.6.
Turning to `C=C[C@H]1CN2CC[C@H]1C[C@@H]2[C@@H](O)c1cc(CC[C@@H](C)[C@H]2CC[C@H]3[C@@H]4[C@H](O)[C@H](O)[C@@H]5C[C@H](O)CC[C@]5(C)[C@H]4CC[C@]23C)nc2ccccc12`, the “Ratio IC50” value is listed as 37.6 in data set [9] and 1.6 with Plasmodium falciparum [10]. In addition, the selectivity ratio amounted to 3.1 in “in vitro” and 31 in data set [1]. Further, the IC50 in [2] was determined as 1.81 µM; in data set [3], 5.68 µM; in the data set on Plasmodium falciparum [5], 0.183 µM.
With `C=C[C@H]1CN2CC[C@H]1C[C@@H]2[C@@H](O)c1cc(CC[C@@H](C)[C@H]2CC[C@H]3[C@@H]4CC[C@@H]5C[C@H](O)CC[C@]5(C)[C@H]4C[C@H](O)[C@]23C)nc2ccccc12`, the figures for the “Ratio IC50” value (in [9]; with Plasmodium falciparum [10]) were 113.1 and 2.2, respectively. Also, the selectivity ratio in “in vitro” worked out at 5; in [1] it was 22. Also, the half-inhibitory concentration (IC50) in [2] is 0.6 µM; in [3], 2.98 µM; with Plasmodium falciparum [5], 0.134 µM.
Regarding `C=C[C@H]1CN2CC[C@H]1C[C@@H]2[C@@H](O)c1cc(CC[C@@H](C)[C@H]2CC[C@H]3[C@@H]4[C@H](O)C[C@@H]5C[C@H](O)CC[C@]5(C)[C@H]4C[C@H](O)[C@]23C)nc2ccccc12`, the “Ratio IC50” value worked out at 61.8 in [9] and 0.5 in the data set with Plasmodium falciparum [10]. Besides, the selectivity ratio was 5.2 in “in vitro” and 10 in data set [1]. Moreover, the results for the IC50 (in data set [2]; in [3]; in the data set with Plasmodium falciparum [5]) were 1.1 µM, 5.68 µM and 0.592 µM, respectively.
